Experimental data: the supplement of paper PMC10307832

Legend:
Experiment in all cases: relative viability (nuclei count vs DMSO), 5 days (fraction); higher = more cells survive
A-427 = test system: A-427
How it was run: (§1)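 Relative viability is defined as nuclei in treated wells over nuclei in vehicle wells. Duplicate plates were run and medians reported. Lung cancer cell lines in 1536-well plates were dosed by pin tool one day after seeding, with one drug or with a fixed anchor-drug dose plus five library-drug doses (not always all listed) in √10 steps, and nuclei were counted after 5 days.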

UMC-11 = test system: UMC-11
How it was run: as §1

NCI-H838 = test system: NCI-H838
How it was run: as §1

HARA = test system: HARA
How it was run: as §1

ChaGo-K-1 = test system: ChaGo-K-1
How it was run: as §1

SK-LU-1 = test system: SK-LU-1
How it was run: as §1

ABC-1 = test system: ABC-1
How it was run: as §1

NCI-H1993 = test system: NCI-H1993
How it was run: as §1

HCC-366 = test system: HCC-366
How it was run: as §1

NCI-H2228 = test system: NCI-H2228
How it was run: as §1

EMC-BAC-2 = test system: EMC-BAC-2
How it was run: as §1

NCI-H1793 = test system: NCI-H1793
How it was run: as §1

NCI-H1650 = test system: NCI-H1650
How it was run: as §1

NCI-H1944 = test system: NCI-H1944
How it was run: as §1

LC-2-ad = test system: LC-2-ad
How it was run: as §1

NCI-H2405 = test system: NCI-H2405
How it was run: as §1

HCC-15 = test system: HCC-15
How it was run: as §1

NCI-H2009 = test system: NCI-H2009
How it was run: as §1

NCI-H1734 = test system: NCI-H1734
How it was run: as §1

LK-2 = test system: LK-2
How it was run: as §1

COR-L23 = test system: COR-L23
How it was run: as §1

HCC-78 = test system: HCC-78
How it was run: as §1

NCI-H23 = test system: NCI-H23
How it was run: as §1

NCI-H2023 = test system: NCI-H2023
How it was run: as §1

`COc1cc(N2CCC(C(N)=O)CC2)ccc1Nc1nc(N)c(Cl)c(Nc2ccccc2S(=O)(=O)C(C)C)n1` [HG-5-88-01] + O=C(CCCCCCC(=O)Nc1ccccc1)NO [Vorinostat] (partner 1 µM) gave a relative viability (A-427; first compound 0.04 µM) of 0.892, a relative viability (A-427; first compound 0.1265 µM) of 0.859 and a relative viability (A-427; first compound 0.4 µM) of 0.884. For the same compound, the relative viability (A-427; first compound 1.265 µM) was 0.912, the relative viability (A-427; first compound 4 µM) was 0.726 and the relative viability (UMC-11; first compound 0.04 µM) was 0.437. For the same compound, the relative viability (UMC-11; first compound 0.1265 µM) was 0.442, the relative viability (UMC-11; first compound 0.4 µM) was 0.354 and the relative viability (UMC-11; first compound 1.265 µM) was 0.33. For the same compound, the relative viability (UMC-11; first compound 4 µM) was 0.288, the relative viability (NCI-H838; first compound 0.04 µM) was 0.745 and the relative viability (NCI-H838; first compound 0.1265 µM) was 0.707. The relative viability (NCI-H838; first compound 0.4 µM) was 0.651, the relative viability (NCI-H838; first compound 1.265 µM) was 0.596 and the relative viability (NCI-H838; first compound 4 µM) was 0.53. For the same compound, the relative viability (HARA; first compound 0.04 µM) was 0.532, the relative viability (HARA; first compound 0.1265 µM) was 0.526 and the relative viability (HARA; first compound 0.4 µM) was 0.585. For the same compound, the relative viability (HARA; first compound 1.265 µM) was 0.577, the relative viability (HARA; first compound 4 µM) was 0.507 and the relative viability (ChaGo-K-1; first compound 0.04 µM) was 0.75. It also gave a relative viability (ChaGo-K-1; first compound 0.1265 µM) of 0.71, a relative viability (ChaGo-K-1; first compound 0.4 µM) of 0.737 and a relative viability (ChaGo-K-1; first compound 1.265 µM) of 0.786. For the same compound, the relative viability (ChaGo-K-1; first compound 4 µM) was 0.589, the relative viability (SK-LU-1; first compound 0.04 µM) was 0.783 and the relative viability (SK-LU-1; first compound 0.1265 µM) was 0.82. The relative viability (SK-LU-1; first compound 0.4 µM) was 0.789, the relative viability (SK-LU-1; first compound 1.265 µM) was 0.773 and the relative viability (SK-LU-1; first compound 4 µM) was 0.547. The relative viability (ABC-1; first compound 0.04 µM) was 1.07, the relative viability (ABC-1; first compound 0.1265 µM) was 1.48 and the relative viability (ABC-1; first compound 0.4 µM) was 1.04. For the same compound, the relative viability (ABC-1; first compound 1.265 µM) was 1.04, the relative viability (ABC-1; first compound 4 µM) was 0.715 and the relative viability (NCI-H1993; first compound 0.04 µM) was 0.669. The relative viability (NCI-H1993; first compound 0.1265 µM) was 0.976, the relative viability (NCI-H1993; first compound 0.4 µM) was 0.721 and the relative viability (NCI-H1993; first compound 4 µM) was 0.644. The relative viability (HCC-366; first compound 0.04 µM) was 0.438, the relative viability (HCC-366; first compound 0.1265 µM) was 0.452 and the relative viability (HCC-366; first compound 0.4 µM) was 0.339. It also gave a relative viability (HCC-366; first compound 1.265 µM) of 0.336, a relative viability (HCC-366; first compound 4 µM) of 0.283 and a relative viability (NCI-H2228; first compound 0.04 µM) of 0.731. For the same compound, the relative viability (NCI-H2228; first compound 0.1265 µM) was 0.421, the relative viability (NCI-H2228; first compound 0.4 µM) was 0.3 and the relative viability (NCI-H2228; first compound 1.265 µM) was 0.348. For the same compound, the relative viability (NCI-H2228; first compound 4 µM) was 0.379, the relative viability (EMC-BAC-2; first compound 0.04 µM) was 0.503 and the relative viability (EMC-BAC-2; first compound 0.1265 µM) was 0.442. It also gave a relative viability (EMC-BAC-2; first compound 0.4 µM) of 0.354, a relative viability (EMC-BAC-2; first compound 1.265 µM) of 0.518 and a relative viability (EMC-BAC-2; first compound 4 µM) of 0.448. It also gave a relative viability (NCI-H1793; first compound 0.04 µM) of 0.648, a relative viability (NCI-H1793; first compound 0.1265 µM) of 0.95 and a relative viability (NCI-H1793; first compound 0.4 µM) of 0.725. The relative viability (NCI-H1793; first compound 1.265 µM) was 0.575, the relative viability (NCI-H1793; first compound 4 µM) was 0.53 and the relative viability (NCI-H1650; first compound 0.04 µM) was 0.577. It also gave a relative viability (NCI-H1650; first compound 0.1265 µM) of 0.654, a relative viability (NCI-H1650; first compound 0.4 µM) of 0.541 and a relative viability (NCI-H1650; first compound 1.265 µM) of 0.526. For the same compound, the relative viability (NCI-H1650; first compound 4 µM) was 0.46, the relative viability (NCI-H1944; first compound 0.04 µM) was 0.623 and the relative viability (NCI-H1944; first compound 0.1265 µM) was 0.627. The relative viability (NCI-H1944; first compound 0.4 µM) was 0.645, the relative viability (NCI-H1944; first compound 1.265 µM) was 0.55 and the relative viability (NCI-H1944; first compound 4 µM) was 0.568. For the same compound, the relative viability (LC-2-ad; first compound 0.04 µM) was 0.804, the relative viability (LC-2-ad; first compound 0.1265 µM) was 0.75 and the relative viability (LC-2-ad; first compound 0.4 µM) was 0.745. For the same compound, the relative viability (LC-2-ad; first compound 1.265 µM) was 0.674, the relative viability (LC-2-ad; first compound 4 µM) was 0.579 and the relative viability (NCI-H2405; first compound 0.04 µM) was 1.07. The relative viability (NCI-H2405; first compound 0.1265 µM) was 1.06, the relative viability (NCI-H2405; first compound 0.4 µM) was 0.895 and the relative viability (NCI-H2405; first compound 1.265 µM) was 1.03. For the same compound, the relative viability (NCI-H2405; first compound 4 µM) was 1.02, the relative viability (HCC-15; first compound 0.04 µM) was 0.822 and the relative viability (HCC-15; first compound 0.1265 µM) was 0.916. It also gave a relative viability (HCC-15; first compound 0.4 µM) of 0.761, a relative viability (HCC-15; first compound 1.265 µM) of 0.833 and a relative viability (HCC-15; first compound 4 µM) of 0.786. The relative viability (NCI-H2009; first compound 0.04 µM) was 0.704, the relative viability (NCI-H2009; first compound 0.1265 µM) was 0.796 and the relative viability (NCI-H2009; first compound 0.4 µM) was 0.694. For the same compound, the relative viability (NCI-H2009; first compound 1.265 µM) was 0.616, the relative viability (NCI-H2009; first compound 4 µM) was 0.647 and the relative viability (NCI-H1734; first compound 0.04 µM) was 0.969. For the same compound, the relative viability (NCI-H1734; first compound 0.1265 µM) was 0.871, the relative viability (NCI-H1734; first compound 0.4 µM) was 0.833 and the relative viability (NCI-H1734; first compound 1.265 µM) was 0.773. It also gave a relative viability (NCI-H1734; first compound 4 µM) of 0.795, a relative viability (LK-2; first compound 0.04 µM) of 0.326 and a relative viability (LK-2; first compound 0.1265 µM) of 0.411. It also gave a relative viability (LK-2; first compound 0.4 µM) of 0.466, a relative viability (LK-2; first compound 4 µM) of 0.306 and a relative viability (COR-L23; first compound 0.04 µM) of 0.496. The relative viability (COR-L23; first compound 0.1265 µM) was 0.381, the relative viability (COR-L23; first compound 0.4 µM) was 0.355 and the relative viability (COR-L23; first compound 1.265 µM) was 0.364. It also gave a relative viability (COR-L23; first compound 4 µM) of 0.227, a relative viability (HCC-78; first compound 0.04 µM) of 0.467 and a relative viability (HCC-78; first compound 0.1265 µM) of 0.357. For the same compound, the relative viability (HCC-78; first compound 0.4 µM) was 0.356, the relative viability (HCC-78; first compound 1.265 µM) was 0.206 and the relative viability (HCC-78; first compound 4 µM) was 0.217. The relative viability (NCI-H23; first compound 0.04 µM) was 0.793, the relative viability (NCI-H23; first compound 0.1265 µM) was 0.752 and the relative viability (NCI-H23; first compound 0.4 µM) was 0.609. The relative viability (NCI-H23; first compound 1.265 µM) was 0.538, the relative viability (NCI-H23; first compound 4 µM) was 0.307 and the relative viability (NCI-H2023; first compound 0.04 µM) was 0.764. It also gave a relative viability (NCI-H2023; first compound 0.1265 µM) of 0.777, a relative viability (NCI-H2023; first compound 0.4 µM) of 0.361 and a relative viability (NCI-H2023; first compound 1.265 µM) of 0.425. For the same compound, the relative viability (NCI-H2023; first compound 4 µM) was 0.436.
